Data taken from patent publication US20230084354A1, “NUTRACEUTICAL EXTRACTS OF HIPPOPHAE RHAMNOIDES AND TERMINALIA CHEBULA AND USES THEREOF” (Biomics, LLC, priority 2020, published 2023).

Tested on: Human peripheral blood mononuclear cell (PBMC) cultures
Experiment: CD69 and CD25 expression in human PBMC cultures, direct effects
Format: cell-based
Details: direct effect, 24 hours, vs untreated control; extract at the highest dose
Protocol: Next, the immune-modulating effects of the extract were tested. Human peripheral blood mononuclear cell (PBMC) cultures were used for this testing. A set of cultures were left untreated as negative control cultures for immune activation. Triplicate sets of cultures were treated with serial dilutions of the test product. The inflammatory bacterial lipopolysaccharide LPS from E. coli was used as a positive control for activation. The cultures were incubated for 24 hours, after which the cells and the culture supernatants were harvested and used to monitor the reactions in each culture. The cells were used for immunostaining and flow cytometry, specifically to evaluate the induction of two activation markers, CD69 and CD25, on NK cells, NKT cells, T lymphocytes, and monocytes/macrophages.

Substance: Poly I:C
- CD69 expression on NK cells: increase
